From the RepoRT retention time repository (doi:10.1021/acs.analchem.2c02893)

Assays:
Settings in all cases: stereoisomer not certain
[1] = RP, Thermo Scientific Acclaim RSLC 120 C18, 100 × 2.1 mm, 2.2 µm, 30 °C, 0.2 mL/min, estimated dead time 1.1 min; A: 90% water + 10% methanol + 0.01% formic acid + 5 mM ammonium formate, pH 3.61; B: methanol + 0.01% formic acid + 5 mM ammonium formate, pH 3.61; gradient (min/%B) 0/1 1/1 2/39 13/99.9 15/99.9 15.1/1 20.1/1
[2] = RP, Waters ACQUITY UPLC BEH C18, 100 × 2.1 mm, 1.7 µm, 30 °C, 0.35 mL/min, estimated dead time 0.63 min; A: water + 0.01% formic acid + 5 mM ammonium formate, pH 3.71; B: acetonitrile + 0.01% formic acid, pH 3.71; gradient (min/%B) 0/10 3/10 22/100 30/100 30.1/10 40/10
[3] = RP, Thermo Scientific Acclaim RSLC 120 C18, 100 × 2.1 mm, 2.2 µm, 30 °C, 0.2 mL/min, estimated dead time 1.1 min; A: water + 0.1% formic acid, pH 2.6; B: methanol + 0.1% formic acid, pH 2.6; gradient (min/%B) 0/10 4/50 17/95 25/95 25.1/10 30/10
[4] = RP, Waters ACQUITY UPLC BEH C18, 100 × 2.1 mm, 1.7 µm, 35 °C, 0.35 mL/min, estimated dead time 0.63 min; A: water + 0.01% formic acid + 5 mM ammonium formate, pH 3.71; B: acetonitrile + 0.01% formic acid, pH 3.71; gradient (min/%B) 0/5 0.5/5 16/95 16.1/99 19/99 19.1/5 21/5

| Structure (SMILES) | LC retention time [1] | LC retention time [2] | LC retention time [3] | LC retention time [4] |
| --- | --- | --- | --- | --- |
| CCN(C)C(=O)Oc1cccc(C(C)N(C)C)c1 (centres undefined) [Rivastigmine] | 4.74 min | 6.53 min | 4.86 min | 4.78 min |
| CN1C(=O)CCC1c1cccnc1 (centres undefined) [Cotinine] | 3.75 min | 1.41 min | 1.71 min | 2.06 min |
| CC(N)Cc1ccc2c(c1)OCO2 (centres undefined) [MDA] | 4.19 min | 3.36 min | 3.96 min | 3.46 min |
| CN1CCCC1c1cccnc1 (centres undefined) [Nicotine] | 2.41 min | 1.03 min | 1.34 min | 1.17 min |
| COCC(NC(C)=O)C(=O)NCc1ccccc1 (centres undefined) [Lacosamide] | 5.09 min | 5.76 min | 5.79 min | 4.46 min |
| CC12CC3CC(C)(C1)CC(N)(C3)C2 [Memantine] | 6.91 min | 8.04 min | 6.63 min | 5.86 min |
| O=C(O)c1cn(C2CC2)c2cc(N3CCNCC3)c(F)cc2c1=O [Ciprofloxacin] | 4.42 min | 5.54 min | 4.46 min | 4.13 min |
| c1ccc2n[nH]nc2c1 [Benzotriazole (BTR)] | 4.76 min | 3.69 min | 5.31 min | 3.61 min |
| CCN1CCN(C(=O)NC(C(=O)NC2C(=O)N3C(C(=O)O)=C(CSc4nnnn4C)CSC23)c2ccc(O)cc2)C(=O)C1=O (centres undefined) [Cefoperazone] | 4.36 min | 6.08 min | 5.37 min | 4.19 min |
| COc1cc(Cc2cnc(N)nc2N)cc(OC)c1OC [Trimethoprim] | 4.06 min | 4.48 min | 3.86 min | 3.78 min |
| CCCCCc1cc(O)c2c(c1)OC(C)(C)C1CCC(C)=CC21 (centres undefined) [THC] | 14 min | 19.6 min | 18.7 min | 15.1 min |
| C1=CCC(c2cccnc2)NC1 (centres undefined) [Anatabine] | 2.68 min | 1.08 min | 3.66 min | 1.27 min |
| CC(C)Cc1ccc(C(C)C(=O)O)cc1 (centres undefined) [Ibuprofen] | 10.7 min | 14 min | 13.1 min | 10.7 min |
| Cn1c(=O)c2c(ncn2C)n(C)c1=O [Caffeine] | 4.23 min | 2.43 min | 4.69 min | 3.08 min |
| CNC(=O)ON=C(C)C(C)SC (centres undefined) [Butocarboxim] | 6.07 min | 7.64 min | 6.82 min | 5.7 min |
| CCCCC(CC)COC(=O)C(C#N)=C(c1ccccc1)c1ccccc1 (centres undefined) [Octocrylene] | 13.4 min | 19.8 min | 18 min | 15.3 min |
| COC(=O)c1ccccc1C(=O)OC [Phthalate-Dimethyl] | 6.63 min | 9.38 min | 7.52 min | 7.03 min |
| CCC(C)OC(=O)N1CCCCC1CCO (centres undefined) [Picaridin (Icaridin)] | 8.83 min | 10.8 min | 10.7 min | 8.16 min |
| CC(C)NCC(O)c1ccc(N)c(C#N)c1 (centres undefined) [Cimaterol] | 2.99 min | 1.48 min | 2.51 min | 2.1 min |
| CCC(C(N)=O)N1CCCC1=O (centres undefined) [Levetiracetam] | 3.74 min | 1.68 min | 3.89 min | 2.43 min |
| COc1cc2c(c(OC)c1OC)-c1ccc(OC)c(=O)cc1C(NC(C)=O)CC2 (centres undefined) [Colchicine] | 6.43 min | 8.29 min | 7.17 min | 5.99 min |
| CCC1OC(=O)CC(O)C(C)C(OC2OC(C)C(OC3CC(C)(O)C(O)C(C)O3)C(N(C)C)C2O)C(CC=O)CC(C)C(=O)C=CC(C)=CC1COC1OC(C)C(O)C(OC)C1OC (centres undefined) [Tylosin] | 7.88 min | 10.1 min | 7.75 min | 7.42 min |
| Nc1ncnc2c1ncn2C1OC(CO)C(O)C1O (centres undefined) [Adenosine] | 3.14 min | 1.31 min | 2.13 min | 1.27 min |

| Structure (SMILES) | LC retention time [1] | LC retention time [2] | LC retention time [3] | LC retention time [4] |
| --- | --- | --- | --- | --- |
| NC1Cc2cc3c(cc2C1)OCO3 [MDAI] | 3.81 min | 2.34 min | 3.47 min | 2.95 min |
| CCCCOc1ccc(CC(=O)NO)cc1 [Bufexamac] | 7.83 min | 9.74 min | 9.38 min | 7.21 min |
| CCN(CC)C(=O)Nc1ccc(OCC(O)CNC(C)(C)C)c(C(C)=O)c1 (centres undefined) [Celiprolol] | 5.24 min | 7.46 min | 5.29 min | 5.34 min |
| COC(=O)Nc1nc2ccc(Sc3ccccc3)cc2[nH]1 [Fenbendazole] | 10.3 min | 12.2 min | 10.9 min | 9.17 min |
| COc1cccc(C2(O)CCCCC2CN(C)C)c1 (centres undefined) [Tramadol] | 4.88 min | 6.56 min | 4.86 min | 4.79 min |
| CC(=O)Nc1ccc(O)cc1 [Paracetamol] | 3.48 min | 1.59 min | 3.52 min | 2 min |
| CC(N)C12CC3CC(CC(C3)C1)C2 (centres undefined) [Rimantadin] | 6.71 min | 7.89 min | 6.34 min | 5.86 min |
| CCOc1ccc(NC(C)=O)cc1 [Phenacetin] | 5.93 min | 7.53 min | 6.82 min | 5.58 min |
| CC(N)Cc1ccccc1 (centres undefined) [Amphetamine] | 4.16 min | 2.99 min | 3.86 min | 3.28 min |
| O=P(Oc1ccccc1)(Oc1ccccc1)Oc1ccccc1 [Phosphate-Triphenyl] | 11 min | 15.5 min | 14.3 min | 11.8 min |
| COP(N)(=O)SC (centres undefined) [Methamidophos] | 2.76 min | 1.18 min | 2.61 min | 1.34 min |
| CN=C(NC#N)NCCSCc1nc[nH]c1C [Cimetidine] | 3.24 min | 1.54 min | 2.88 min | 2.11 min |
| NC(=O)c1cccnc1 [Nicotinamide] | 2.73 min | 1.06 min | 1.69 min | 1.2 min |
| CCNc1nc(N)nc(Cl)n1 [Atrazine-desisopropyl] | 4.75 min | 3.51 min | 5.22 min | 3.58 min |
| CCOC(=O)c1ccccc1C(=O)OCC [Phthalate-Diethyl] | 8.5 min | 12.2 min | 10.2 min | 9.21 min |
| Cc1cccc(C)c1OCC(=O)NC(Cc1ccccc1)C(O)CC(Cc1ccccc1)NC(=O)C(C(C)C)N1CCCNC1=O (centres undefined) [Lopinavir] | 11.8 min | 14.4 min | 15.4 min | 11 min |
| Cn1c(=O)c2[nH]cnc2n(C)c1=O [Theophylline] | 3.93 min | 1.66 min | 4.14 min | 2.31 min |
| N#CC1CCCN1C(=O)CNC12CC3CC(CC(O)(C3)C1)C2 (centres undefined) [Vildagliptin] | 3.26 min | 1.89 min | 2.81 min | 2.68 min |
| COC1C=COC2(C)Oc3c(C)c(O)c4c(O)c(c5c(nc6cc(C)ccn65)c4c3C2=O)NC(=O)C(C)=CC=CC(C)C(O)C(C)C(O)C(C)C(OC(C)=O)C1C (centres undefined) [Rifaximin] | 10.1 min | 13 min | 12.5 min | 9.87 min |
| CC1CCc2cc(F)cc3c(=O)c(C(=O)O)cn1c23 (centres undefined) [Flumequine] | 7.46 min | 9.84 min | 8.57 min | 7.28 min |
| CCSCc1ccccc1OC(=O)NC [Ethiofencarb] | 7.7 min | 10.7 min | 9.05 min | 8.02 min |
| COP(=O)(OC)OC=C(Cl)Cl [Dichlorvos] | 7 min | 9.14 min | 8.02 min | 6.79 min |
| COc1ccc(C(=O)c2ccccc2)c(O)c1 [Benzophenon 3 (=2-Hydroxy-4-methoxybenzophenon)] | 10.8 min | 14.5 min | 13.8 min | 11 min |
